What was measured:
[1] = test system: P388; assay: Antitumor activity against mouse P388 cells allografted in mouse assessed as increase in survival rate at 120 mg/kg relative to control; format: functional
[2] = test system: Mus musculus; assay: Toxicity in mouse allografted with mouse P388 cells at 120 mg/kg; format: organism-based; design: dose 120 mg/kg; details: in vivo
[3] = test system: P388; assay: Antitumor activity against mouse P388 cells allografted in mouse assessed as increase in survival rate at 225 mg/kg relative to control; format: functional
[4] = test system: Mus musculus; assay: Toxicity in mouse allografted with mouse P388 cells at 225 mg/kg; format: organism-based; design: dose 225 mg/kg; details: in vivo

SMILES	T/C [1] [%]	Activity [2]	T/C [3] [%]	Activity [4]
NC(=O)Nc1cc(NC(N)=O)cc(N(CCCl)CCCl)c1	194	Non-toxic	–	–
CC(=O)Nc1cc(NC(C)=O)cc(N(CCCl)CCCl)c1	–	–	196	Non-toxic
